In patent publication US20180369166A1, “GARCINOL COMPOSITIONS FOR THERAPEUTIC MANAGEMENT OF ENDOPLASMIC RETICULUM STRESS” (priority 2017, published 2018):

Key:
[1] = system: Human Liver cell line (HepG2); experiment: Thapsigargin induced protein aggregation in human liver cells (thioflavin staining, flow cytometry); assay type: cell-based; settings: 10 μg/ml, 1 μM Thapsigargin, FIGS. 7a and 7b
Procedure: (§1) HepG2—human liver cell line, primary mouse hepatocytes. Min6—Mouse pancreatic beta cell line, 3T3 L1—mouse preadipocytes wee used for the experiments. Cells were maintained in DMEM containing 25 mM glucose with 10% heat-inactivated fetal calf serum with antibiotics at 37° C. and 5% CO2. When the cells were 70-80% confluent, they were trypsinized, washed and seeded in 96 well plates at a density of 5×10^3 cells per well. Stress was induced by Thapsigargin(1 uM) for 4 hours, glucose (50 and 100 mM) and alcohol (1000 mM) or paracetamol (4 mM) for 72 hours. Garcinol was added along with stressor as prophylactic treatment. As a therapeutic treatment, cells were exposed to stress agent 24 hours following which Garcinol was added to the cells. Protection was assessed by SRB assay after 72 hours of treatment
IRE1α phosophorylation levels can be assessed by measuring spliced. XBP-1 product by RT PCR. PERK activation is measured by its phosphorylation levels or by measuring the ATF4 mRNA levels. Activation of ATF4 leads to increased transcription of a network of genes, including those encoding ER chaperones, such as BiP/GRP78.
Effect of Garcinol on Thapsigargin induced ER stress in human liver cells was also evaluated. […] Treated and untreated cells were analysed by Flow cytometry and RT PCR.

[2] = system: primary mouse hepatocytes; experiment: Thapsigargin induced protein aggregation in primary mouse hepatocytes (thioflavin staining); assay type: cell-based; settings: 10 μg/ml; 1 μM Thapsigargin; FIG. 7c
HepG2 Cells = experiment: Alcohol induced toxicity in HepG2 cells (SRB assay); assay type: cell-based, human; settings: 10 μg/ml; 1000 mM Ethanol for 72 hours; FIG. 6
Procedure: as §1
For evaluating alcohol induced toxicity, HepG2 Cells were exposed to 1000 mM of Ethanol for 72 hours in the presence of different concentrations of Garcinol and protection was assessed by SRB assay. Garcinol conferred hepatoprotection against alcohol induced toxicity by 47% at concentration of 10 μg/ml (FIG. 6).

How did the “reduction in protein aggregation in human liver cells” value [1] turn out when `C=C(C)[C@@H](CC=C(C)C)C[C@@]12C[C@@H](CC=C(C)C)C(C)(C)[C@@](CC=C(C)C)(C(=O)C(C(=O)c3ccc(O)c(O)c3)=C1O)C2=O` [Garcinol] was run?
Its value is 44.4%.

And the “reduction in protein aggregation in primary mouse hepatocytes” value [2]?
The value was 70.4%.

And the “hepatoprotection against alcohol induced toxicity” value (HepG2 Cells)?
Its value is 47%.
